Patent US9458202B2, “Peptidomimetic macrocycles with improved properties” (Aileron Therapeutics, Inc., priority 2008, dated 2016)
Where a SMILES comes first, the peptide text is derived from it. [ ]: non-standard residue; d: D form. Nle = CCCC[C@H](N)C(=O)O

Tests used:
circular dichroism = assay: circular dichroism; parameters: unit not given here; conditions: 20 mM phosphoric acid; pH 2.0; 5 °C; 0.05 mg/mL
Figure 2 = assay: Figure 2; parameters: AUCall: concentration or dose not given beside the values; conditions: for C0 / half-life / MRT: Sprague-Dawley, rat, plasma, iv; for MRT: read-out: MRTinf_obs
Protocol: Table printed on a drawing sheet, Figure 2
Footnotes: 2 mg/mL iv bolus in Sprague-Dawley rats (10 mg/kg) / * 0.6 mg/mL iv bolus in Sprague-Dawley rats (3 mg/kg)
The patent's description of the figure: FIG. 2 lists the in vivo half-lives of peptidomimetic macrocycles of the invention. Half-lives were measured in Sprague Dawley rats after one intravenous bolus injection at 0.6 mg/mL or 2 mg/mL of each unlabeled peptidomimetic macrocycle at a 3 mg/kg or 10 mg/kg dose, respectively. Three animals were used per compound and concentrations were determined by mass-spectrometric analysis of blood levels (plasma).
First reader's note: An asterisk before the peptide name marks dosing at 3 mg/kg (0.6 mg/mL) instead of 10 mg/kg (2 mg/mL).

| SMILES | helicity (circular dichroism) | AUCall (Figure 2) [ng·h/mL] | Cl_obs (Figure 2) [mL/min/kg] | C0 (Figure 2) [ng/mL] | half-life (Figure 2) [h] | MRT (Figure 2) [h] |
| --- | --- | --- | --- | --- | --- | --- |
| CC[C@H](C)[C@H](NC(C)=O)C(=O)N[C@@H](Cc1c[nH]c2ccccc12)C(=O)N[C@H](C(=O)N[C@@H](C)C(=O)N[C@@H](CCC(N)=O)C(=O)N[C@@H](C)C(=O)N[C@@H](CC(C)C)C(=O)N[C@@H](CCCNC(=N)N)C(=O)N[C@@H](CCCNC(=N)N)C(=O)N[C@H](C(=O)NCC(=O)N[C@@H](CC(=O)O)C(=O)N[C@@H](CCC(=O)O)C(=O)N[C@@H](Cc1ccccc1)C(=O)N[C@@H](CC(N)=O)C(=O)N[C@@H](C)C(=O)N[C@@H](Cc1ccc(O)cc1)C(=O)N[C@@H](Cc1ccc(O)cc1)C(=O)N[C@@H](C)C(=O)N[C@@H](CCCNC(=N)N)C(=O)N[C@@H](CCCNC(=N)N)C(N)=O)[C@@H](C)CC)[C@@H](C)CC [*SP15] | -2000 | 8430 | 7.467 | 48000 | 0.4 | 0.2 |
| CC[C@H](C)[C@H](NC(C)=O)C(=O)N[C@@H](Cc1c[nH]c2ccccc12)C(=O)N[C@H](C(=O)N[C@@H](C)C(=O)N[C@]1(C)CCCC=CCCCC2(CCCC=CCCC[C@@](C)(C(=O)N[C@@H](Cc3ccccc3)C(=O)N[C@@H](CC(N)=O)C(=O)N[C@@H](C)C(=O)N[C@@H](Cc3ccc(O)cc3)C(=O)N[C@@H](Cc3ccc(O)cc3)C(=O)N[C@@H](C)C(=O)N[C@@H](CCCNC(=N)N)C(=O)N[C@@H](CCCNC(=N)N)C(N)=O)NC(=O)[C@H](CC(=O)O)NC(=O)CNC(=O)[C@H]([C@@H](C)CC)NC2=O)NC(=O)[C@H](CCCNC(=N)N)NC(=O)[C@H](CC(C)C)NC(=O)[C@H](C)NC1=O)[C@@H](C)CC (stereo partly drawn) [*SP20] | -19200 | 15000 | 3.017 | 1950 | 10.8 | 14.1 |
| CCCC[C@H](NC(=O)[C@]1(C)CCCC=CCCCC2(CCCC=CCCC[C@@](C)(NC(=O)[C@H](C)NC(=O)[C@@H](NC(=O)[C@H](CC(N)=O)NC(=O)[C@H](CCCNC(=N)N)NC(=O)[C@@H](NC(=O)[C@@H](NC(=O)[C@H](CC(=O)O)NC(C)=O)[C@@H](C)CC)[C@@H](C)CC)[C@@H](C)CC)C(=O)N[C@@H](Cc3c[nH]cn3)C(=O)N[C@@H](CC(C)C)C(=O)N[C@@H](C)C(=O)N2)C(=O)N[C@@H](C(C)C)C(=O)NCC(=O)N[C@@H](CC(=O)O)C(=O)N1)C(=O)N[C@@H](CC(=O)O)C(=O)N[C@@H](CCCNC(=N)N)C(=O)N[C@@H](CO)C(=O)N[C@H](C(N)=O)[C@@H](C)CC (stereo partly drawn) [*SP13] | -5450 | 82965 | 0.44 | 6100 | 9.5 | 13.2 |
| CCCC[C@H](NC(=O)[C@H](CO)NC(=O)[C@H](CC(=O)O)NC(=O)CNC(=O)[C@@H](NC(=O)[C@H](CCC(N)=O)NC(=O)[C@H](C)NC(=O)[C@H](CC(C)C)NC(=O)[C@H](Cc1c[nH]cn1)NC(=O)[C@H](CCCNC(=N)N)NC(=O)[C@H](C)NC(=O)[C@@H](NC(=O)[C@H](CC(N)=O)NC(=O)[C@H](CCCNC(=N)N)NC(=O)[C@@H](NC(=O)[C@@H](NC(=O)[C@H](CC(=O)O)NC(C)=O)[C@@H](C)CC)[C@@H](C)CC)[C@@H](C)CC)C(C)C)C(=O)N[C@@H](CC(=O)O)C(=O)N[C@@H](CCCNC(=N)N)C(=O)N[C@@H](CO)C(=O)N[C@H](C(N)=O)[C@@H](C)CC [*SP11] (Ac-DIIRNIARHLAQVGDS[Nle]DRSI-NH2) | -1890 | 1136 | 45.53 | 1080 | 1.3 | 1.6 |
| CC[C@H](C)[C@H](NC(C)=O)C(=O)N[C@@H](Cc1c[nH]c2ccccc12)C(=O)N[C@H](C(=O)N[C@@H](C)C(=O)N[C@@H](CCC(N)=O)C(=O)N[C@@H](C)C(=O)N[C@@H](CC(C)C)C(=O)N[C@@H](CCCNC(=N)N)C(=O)N[C@@]1(C)CCCC=CCCC[C@@](C)(C(=O)N[C@@H](Cc2ccccc2)C(=O)N[C@@H](CC(N)=O)C(=O)N[C@@H](C)C(=O)N[C@@H](Cc2ccc(O)cc2)C(=O)N[C@@H](Cc2ccc(O)cc2)C(=O)N[C@@H](C)C(=O)N[C@@H](CCCNC(=N)N)C(=O)N[C@@H](CCCNC(=N)N)C(N)=O)NC(=O)[C@H](CC(=O)O)NC(=O)CNC(=O)[C@H]([C@@H](C)CC)NC1=O)[C@@H](C)CC [SP9] | -14900 | 124448 | 0.83 | 159000 | 7.3 | 4.5 |
| CC[C@H](C)[C@H](NC(C)=O)C(=O)N[C@@H](Cc1c[nH]c2ccccc12)C(=O)N[C@H](C(=O)N[C@@H](C)C(=O)N[C@@]1(C)CCCC=CCCCC2(CCCC=CCCCCCC[C@@](C)(C(=O)N[C@@H](Cc3ccc(O)cc3)C(=O)N[C@@H](Cc3ccc(O)cc3)C(=O)N[C@@H](C)C(=O)N[C@@H](CCCNC(=N)N)C(=O)N[C@@H](CCCNC(=N)N)C(N)=O)NC(=O)[C@H](CC(N)=O)NC(=O)[C@H](Cc3ccccc3)NC(=O)[C@H](CCC(=O)O)NC(=O)[C@H](CC(=O)O)NC(=O)CNC(=O)[C@H]([C@@H](C)CC)NC2=O)NC(=O)[C@H](CCCNC(=N)N)NC(=O)[C@H](CC(C)C)NC(=O)[C@H](C)NC1=O)[C@@H](C)CC (stereo partly drawn) [*SP21] | -11200 | 7000 | 6.977 | 1450 | 5.7 | 6.6 |
| CC(=O)N[C@@H](CCC(N)=O)C(=O)N[C@@H](CO)C(=O)N[C@@]1(C)CCCC=CCCCC2(CCCC=CCCCCCC[C@@](C)(C(=O)N[C@@H](CCC(N)=O)C(=O)N[C@@H](CC(N)=O)C(N)=O)NC(=O)[C@H](CC(C)C)NC(=O)[C@H](CC(C)C)NC(=O)[C@H](CCCNC(=N)N)NC(=O)[C@H](Cc3c[nH]c4ccccc34)NC(=O)[C@H](CC(C)C)NC(=O)[C@H](CC(N)=O)NC2=O)NC(=O)[C@H](Cc2ccccc2)NC(=O)[C@H]([C@@H](C)O)NC(=O)[C@H](CCC(N)=O)NC1=O (stereo partly drawn) [*SP17] | -12300 | 102958 | 0.995 | 72800 | 3.3 | 3 |
| CC[C@H](C)[C@H](NC(C)=O)C(=O)N[C@@]1(C)CCCC=CCCC[C@@](C)(C(=O)N[C@@H](CC(C)C)C(=O)N[C@@H](CCCNC(=N)N)C(=O)N[C@@]2(C)CCCC=CCCC[C@@](C)(C(=O)N[C@@H](Cc3ccccc3)C(=O)N[C@@H](CC(N)=O)C(=O)N[C@@H](C)C(=O)N[C@@H](Cc3ccc(O)cc3)C(=O)N[C@@H](Cc3ccc(O)cc3)C(=O)N[C@@H](C)C(=O)N[C@@H](CCCNC(=N)N)C(=O)N[C@@H](CCCNC(=N)N)C(N)=O)NC(=O)[C@H](CC(=O)O)NC(=O)CNC(=O)[C@H]([C@@H](C)CC)NC2=O)NC(=O)[C@H](CCC(N)=O)NC(=O)[C@H](C)NC(=O)[C@H]([C@@H](C)CC)NC1=O [*SP16] | -14400 | 125889 | 0.4 | 22900 | 4.5 | 4.4 |
